Measurements published in patent US20260092071A1, “COMPOUNDS AND COMPOSITIONS AS SMARCA2/4 DEGRADERS AND USES THEREOF” (REGENTS OF THE UNIVERSITY OF MICHIGAN, priority 2022, published 2026).

Tests used:
SMARCA4 = SMARCA4 (Homo sapiens, UniProt P51532); assay: HiBiT assay for protein degradation, Hela SMARCA4-HiBiT cells (A series); type: cell-based; set-up: fuse HiBiT to the carboxy terminus of SMARCA2 (Promega CS302365) or SMARCA4 (Promega CS3023225); host or cells: HeLa (CRISPR/Cas9 HiBiT knock-in); conditions: Hela SMARCA4-HiBiT cells, 24 hours treatment; for DC50: read-out: SMARC A4 Hela HiBit DC50; for Dmax: read-out: SMARC A4 Hela HiBit Dmax
Chain of SMARCA4 (P51532 whole entry): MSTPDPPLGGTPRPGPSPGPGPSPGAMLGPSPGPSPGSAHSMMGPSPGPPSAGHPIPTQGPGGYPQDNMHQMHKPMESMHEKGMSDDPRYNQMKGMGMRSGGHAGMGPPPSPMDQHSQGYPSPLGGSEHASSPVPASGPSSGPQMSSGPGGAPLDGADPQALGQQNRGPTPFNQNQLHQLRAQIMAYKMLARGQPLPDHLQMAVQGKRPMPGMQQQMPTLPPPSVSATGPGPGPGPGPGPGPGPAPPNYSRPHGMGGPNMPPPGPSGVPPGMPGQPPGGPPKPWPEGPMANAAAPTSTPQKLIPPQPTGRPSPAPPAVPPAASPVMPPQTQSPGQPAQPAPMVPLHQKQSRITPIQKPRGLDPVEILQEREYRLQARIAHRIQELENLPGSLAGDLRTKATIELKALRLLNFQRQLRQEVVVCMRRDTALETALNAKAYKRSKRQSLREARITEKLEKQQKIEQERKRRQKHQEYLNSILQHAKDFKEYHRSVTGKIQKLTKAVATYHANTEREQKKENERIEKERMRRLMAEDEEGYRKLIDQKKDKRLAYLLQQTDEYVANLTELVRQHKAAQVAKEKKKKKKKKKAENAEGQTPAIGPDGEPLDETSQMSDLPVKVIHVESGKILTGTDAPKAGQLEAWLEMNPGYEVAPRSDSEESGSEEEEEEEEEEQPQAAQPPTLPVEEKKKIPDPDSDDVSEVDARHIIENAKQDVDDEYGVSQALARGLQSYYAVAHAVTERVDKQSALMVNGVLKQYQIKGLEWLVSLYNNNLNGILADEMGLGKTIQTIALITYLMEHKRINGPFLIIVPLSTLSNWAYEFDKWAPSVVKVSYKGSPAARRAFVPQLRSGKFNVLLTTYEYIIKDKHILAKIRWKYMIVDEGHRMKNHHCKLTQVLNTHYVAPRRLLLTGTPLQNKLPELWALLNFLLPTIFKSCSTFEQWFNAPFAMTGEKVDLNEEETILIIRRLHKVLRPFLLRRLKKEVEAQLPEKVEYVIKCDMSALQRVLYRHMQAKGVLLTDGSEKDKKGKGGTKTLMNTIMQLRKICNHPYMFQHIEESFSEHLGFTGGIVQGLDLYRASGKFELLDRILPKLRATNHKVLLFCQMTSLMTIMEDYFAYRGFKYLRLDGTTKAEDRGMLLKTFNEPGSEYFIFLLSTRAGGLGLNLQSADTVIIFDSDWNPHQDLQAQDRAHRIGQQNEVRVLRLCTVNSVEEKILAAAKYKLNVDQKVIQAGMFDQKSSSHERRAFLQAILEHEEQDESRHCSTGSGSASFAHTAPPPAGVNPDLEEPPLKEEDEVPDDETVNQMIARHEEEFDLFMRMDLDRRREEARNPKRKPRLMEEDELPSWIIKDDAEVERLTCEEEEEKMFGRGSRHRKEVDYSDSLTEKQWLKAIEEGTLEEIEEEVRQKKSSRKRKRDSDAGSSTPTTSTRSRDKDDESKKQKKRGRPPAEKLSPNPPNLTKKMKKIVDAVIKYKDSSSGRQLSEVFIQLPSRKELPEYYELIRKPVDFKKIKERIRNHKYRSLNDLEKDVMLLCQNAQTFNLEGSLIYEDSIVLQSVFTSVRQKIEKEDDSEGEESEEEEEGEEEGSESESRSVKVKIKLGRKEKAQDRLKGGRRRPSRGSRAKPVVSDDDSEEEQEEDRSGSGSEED
Method in brief: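 SMARCA4 degradation was measured in HeLa cells in which HiBiT had been knocked into the SMARCA4 carboxy terminus via CRISPR/Cas9 (Promega CS3023225). Cells were maintained in DMEM with FBS and penicillin-streptomycin. At the end of treatment, SMARCA4 levels were read by lytic HiBiT luminescence (Nano-Glo®, Promega N3050), and data were analyzed with GraphPad Prism.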

SMARCA2 = SMARCA2 (Homo sapiens, UniProt P51531); assay: HiBiT assay for protein degradation, Hela SMARCA2-HiBiT cells (A series); type: cell-based; set-up: Hela cells were genetically modified via CRISPR/Cas9 to fuse HiBiT to the carboxy terminus of SMARCA2; host or cells: HeLa (CRISPR/Cas9 HiBiT knock-in); conditions: Hela SMARCA2-HiBiT cells, 24 hours treatment; for DC50: read-out: SMARC A2 Hela HiBit DC50; for Dmax: read-out: SMARC A2 Hela HiBit Dmax (%);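 as to SMARC A2 Hela HiBit Dmax (%): 24 h compound treatment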
Chain of SMARCA2 (P51531 whole entry): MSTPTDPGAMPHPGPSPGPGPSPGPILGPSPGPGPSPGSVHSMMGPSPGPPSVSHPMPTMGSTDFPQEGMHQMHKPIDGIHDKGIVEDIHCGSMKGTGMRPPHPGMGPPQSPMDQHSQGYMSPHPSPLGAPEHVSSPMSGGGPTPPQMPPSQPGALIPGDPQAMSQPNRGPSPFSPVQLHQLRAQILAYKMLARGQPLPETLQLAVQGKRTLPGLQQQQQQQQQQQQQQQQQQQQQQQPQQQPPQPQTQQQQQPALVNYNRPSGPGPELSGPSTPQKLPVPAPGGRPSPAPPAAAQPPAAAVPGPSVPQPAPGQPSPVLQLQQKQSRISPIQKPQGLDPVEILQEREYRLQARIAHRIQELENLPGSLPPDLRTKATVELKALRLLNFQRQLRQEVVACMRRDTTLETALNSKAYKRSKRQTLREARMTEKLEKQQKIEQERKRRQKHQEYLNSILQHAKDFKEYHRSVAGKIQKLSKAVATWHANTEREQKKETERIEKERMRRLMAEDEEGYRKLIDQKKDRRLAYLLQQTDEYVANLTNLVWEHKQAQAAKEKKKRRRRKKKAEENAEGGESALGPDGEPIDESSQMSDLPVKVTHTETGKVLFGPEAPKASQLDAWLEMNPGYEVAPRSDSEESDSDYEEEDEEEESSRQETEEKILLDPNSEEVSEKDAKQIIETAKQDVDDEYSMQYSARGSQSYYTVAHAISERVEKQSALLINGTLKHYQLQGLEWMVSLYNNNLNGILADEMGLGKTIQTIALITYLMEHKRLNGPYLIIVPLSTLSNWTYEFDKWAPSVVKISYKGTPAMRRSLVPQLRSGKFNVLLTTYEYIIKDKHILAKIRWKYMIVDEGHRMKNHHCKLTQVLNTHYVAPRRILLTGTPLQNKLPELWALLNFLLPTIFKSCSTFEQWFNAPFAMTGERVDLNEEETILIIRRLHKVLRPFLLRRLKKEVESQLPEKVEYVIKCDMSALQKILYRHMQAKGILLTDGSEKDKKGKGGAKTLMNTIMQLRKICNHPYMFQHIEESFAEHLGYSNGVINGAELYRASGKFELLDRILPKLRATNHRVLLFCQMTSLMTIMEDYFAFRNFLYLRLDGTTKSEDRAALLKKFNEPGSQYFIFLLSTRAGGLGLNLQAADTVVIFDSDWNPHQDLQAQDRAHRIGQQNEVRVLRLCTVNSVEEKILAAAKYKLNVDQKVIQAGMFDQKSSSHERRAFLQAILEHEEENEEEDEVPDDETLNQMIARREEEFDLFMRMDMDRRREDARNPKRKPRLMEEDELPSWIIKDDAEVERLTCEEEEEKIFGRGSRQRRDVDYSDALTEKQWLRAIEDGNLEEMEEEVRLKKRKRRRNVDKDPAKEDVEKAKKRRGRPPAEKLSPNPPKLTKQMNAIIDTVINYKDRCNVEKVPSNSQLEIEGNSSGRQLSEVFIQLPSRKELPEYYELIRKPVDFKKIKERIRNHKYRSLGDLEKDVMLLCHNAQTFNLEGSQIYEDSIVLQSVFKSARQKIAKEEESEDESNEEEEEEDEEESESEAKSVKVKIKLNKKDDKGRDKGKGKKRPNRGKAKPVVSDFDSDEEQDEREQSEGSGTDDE
Method in brief: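 SMARCA2 degradation was measured in HeLa cells whose endogenous SMARCA2 carries a carboxy-terminal HiBiT tag introduced by CRISPR/Cas9 (Promega CS302365). Cells were maintained in DMEM with FBS and penicillin-streptomycin. SMARCA2 levels were read at the end of the experiment by Nano-Glo® HiBiT lytic luminescence (Promega N3050) and analyzed in GraphPad Prism.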

Structure (SMILES) | DC50 (SMARCA4) | Dmax (SMARCA4) | DC50 (SMARCA2) | Dmax (SMARCA2)
Cc1ncsc1-c1ccc([C@H](CO)NC(=O)[C@@H]2C[C@@H](O)CN2C(=O)[C@H](C2CCCCC2)n2cc([C@H]3CC[C@H](CN4CCC(c5ccc6c(c5)-n5c(nc(=O)c7c(Cl)cccc75)C65CCCCC5)CC4)CC3)nn2)cc1 [Compound A126, (2S,4R)-1-((S)-2-(4-((1r,4S)-4-((4-(4′-chloro-5′-oxo-5′H-spiro[cyclohexane-1,7′-indolo[1,2-a]quinazolin]-10′-yl)piperidin-1-yl)methyl)cyclohexyl)-1H-1,2,3-triazol-1-yl)-2-cyclohexylacetyl)-4-hydroxy-N—((R)-2-hydroxy-1-(4-(4-methylthiazol-5-yl)phenyl)ethyl)pyrrolidine-2-carboxamide] | 10 to 100 nM | 50 to 69% | < 10 nM | > 90%
Cc1ncsc1-c1ccc([C@H](CO)NC(=O)[C@@H]2C[C@@H](O)CN2C(=O)[C@H](C2CCCCC2)n2cc([C@H]3CC[C@H](CN4CCC(c5ccc6c(c5)-n5c(nc(=O)c7c(Br)cccc75)C65CCCCC5)CC4)CC3)nn2)cc1 [Compound A127] | < 10 nM | 70 to 90% | < 10 nM | > 90%
Cc1ncsc1-c1ccc([C@H](CN2CCOCC2)NC(=O)[C@@H]2C[C@@H](O)CN2C(=O)[C@H](C2CCCCC2)n2cc(-c3ccc(CN4CCC(c5ccc6c(c5)-n5c(nc(=O)c7c(Br)cccc75)C65CCCCC5)CC4)cc3)nn2)cc1 [Compound A128, (2S,4R)-1-((S)-2-(4-(4-((4-(4′-bromo-5′-oxo-5′H-spiro[cyclohexane-1,7′-indolo[1,2-a]quinazolin]-10′-yl)piperidin-1-yl)methyl)phenyl)-1H-1,2,3-triazol-1-yl)-2-cyclohexylacetyl)-4-hydroxy-N—((R)-1-(4-(4-methylthiazol-5-yl)phenyl)-2-morpholinoethyl)pyrrolidine-2-carboxamide] | > 1000 nM | < 50% | 100 to 1000 nM | 50 to 69%
Cc1ncsc1-c1ccc([C@H](CO)NC(=O)[C@@H]2C[C@@H](O)CN2C(=O)[C@H](C2CCCCC2)n2cc(-c3ccc(CN4CCC(c5ccc6c(c5)-n5c(nc(=O)c7c(Br)cccc75)C65CCCCC5)CC4)cc3)nn2)cc1 [Compound A129] | > 1000 nM | < 50% | 100 to 1000 nM | 50 to 69%
Cc1ncsc1-c1ccc([C@H](CN2CCOCC2)NC(=O)[C@@H]2C[C@@H](O)CN2C(=O)[C@H](C2CCCCC2)n2cc([C@H]3CC[C@H](CN4CCC(c5ccc6c(c5)-n5c(nc(=O)c7c(Cl)cccc75)C65CCCCC5)C4)CC3)nn2)cc1 (stereo partly drawn) [Compound A130, (2S,4R)-1-((2S)-2-(4-((1r,4S)-4-((3-(4′-chloro-5′-oxo-5′H-spiro[cyclohexane-1,7′-indolo[1,2-a]quinazolin]-10′-yl)pyrrolidin-1-yl)methyl)cyclohexyl)-1H-1,2,3-triazol-1-yl)-2-cyclohexylacetyl)-4-hydroxy-N—((R)-1-(4-(4-methylthiazol-5-yl)phenyl)-2-morpholinoethyl)pyrrolidine-2-carboxamide] | > 1000 nM | < 50% | 10 to 100 nM | > 90%
Cc1ncsc1-c1ccc([C@H](CN2CCOCC2)NC(=O)[C@@H]2C[C@@H](O)CN2C(=O)[C@H](C2CCCCC2)n2cc([C@H]3CC[C@H](CN4CCC[C@H](c5ccc6c(c5)-n5c(nc(=O)c7c(Cl)cccc75)C65CCCCC5)C4)CC3)nn2)cc1 [Compound A131, (2S,4R)-1-((2S)-2-(4-((1r,4S)-4-((3-(4′-chloro-5′-oxo-5′H-spiro[cyclohexane-1,7′-indolo[1,2-a]quinazolin]-10′-yl)piperidin-1-yl)methyl)cyclohexyl)-1H-1,2,3-triazol-1-yl)-2-cyclohexylacetyl)-4-hydroxy-N—((R)-1-(4-(4-methylthiazol-5-yl)phenyl)-2-morpholinoethyl)pyrrolidine-2-carboxamide] | > 1000 nM | < 50% | 10 to 100 nM | 70 to 90%
Cc1ncsc1-c1ccc([C@H](C)NC(=O)[C@@H]2C[C@@H](O)CN2C(=O)[C@H](C2CCN(C(=O)[C@H]3CC[C@H](CN4CCC(c5ccc6c(c5)-n5c(nc(=O)c7c(Br)cccc75)C65CCCCC5)CC4)CC3)CC2)n2cc(C3CC3)nn2)cc1 [Compound A132, (2S,4R)-1-((S)-2-(1-((1r,4S)-4-((4-(4′-bromo-5′-oxo-5′H-spiro[cyclohexane-1,7′-indolo[1,2-a]quinazolin]-10′-yl)piperidin-1-yl)methyl)cyclohexane-1-carbonyl)piperidin-4-yl)-2-(4-cyclopropyl-1H-1,2,3-triazol-1-yl)acetyl)-4-hydroxy-N—((S)-1-(4-(4-methylthiazol-5-yl)phenyl)ethyl)pyrrolidine-2-carboxamide] | > 1000 nM | < 50% | < 10 nM | > 90%
CC1(C)c2ccc(C3CCN(C[C@H]4CC[C@H](c5cn([C@H](C(=O)N6C[C@H](O)C[C@H]6C(=O)N[C@@H](CN6CCOCC6)c6ccc(-c7scnc7C(=O)O)cc6)C6CCOCC6)nn5)CC4)CC3)cc2-n2c1nc(=O)c1c(Cl)cccc12 [Compound A133, 5-(4-((R)-1-((2S,4R)-1-((S)-2-(4-((1r,4S)-4-((4-(4-chloro-7,7-dimethyl-5-oxo-5,7-dihydroindolo[1,2-a]quinazolin-10-yl)piperidin-1-yl)methyl)cyclohexyl)-1H-1,2,3-triazol-1-yl)-2-(tetrahydro-2H-pyran-4-yl)acetyl)-4-hydroxypyrrolidine-2-carboxamido)-2-morpholinoethyl)phenyl)thiazole-4-carboxylic acid] | > 1000 nM | < 50% | 100 to 1000 nM | 70 to 90%
O=C(O)c1ncsc1-c1ccc([C@H](CN2CCOCC2)NC(=O)[C@@H]2C[C@@H](O)CN2C(=O)[C@H](C2CCOCC2)n2cc([C@H]3CC[C@H](CN4CCC(c5ccc6c(c5)-n5c(nc(=O)c7c(Cl)cccc75)C65CCCCC5)CC4)CC3)nn2)cc1 [Compound A134, 5-(4-((R)-1-((2S,4R)-1-((S)-2-(4-((1r,4S)-4-((4-(4′-chloro-5′-oxo-5′H-spiro[cyclohexane-1,7′-indolo[1,2-a]quinazolin]-10′-yl)piperidin-1-yl)methyl)cyclohexyl)-1H-1,2,3-triazol-1-yl)-2-(tetrahydro-2H-pyran-4-yl)acetyl)-4-hydroxypyrrolidine-2-carboxamido)-2-morpholinoethyl)phenyl)thiazole-4-carboxylic acid] | > 1000 nM | < 50% | 100 to 1000 nM | 70 to 90%
Cc1ncsc1-c1ccc([C@@H](NC(=O)[C@@H]2C[C@@H](O)CN2C(=O)[C@@H](n2cc(C3CC3)nn2)C(C)(C)C)C(=O)N2CCC(c3ccc4c(c3)-n3c(nc(=O)c5c(Br)cccc53)C43CCCCC3)CC2)cc1 [Compound A135, (2S,4R)—N—((R)-2-(4-(4′-bromo-5′-oxo-5′H-spiro[cyclohexane-1,7′-indolo[1,2-a]quinazolin]-10′-yl)piperidin-1-yl)-1-(4-(4-methylthiazol-5-yl)phenyl)-2-oxoethyl)-1-((S)-2-(4-cyclopropyl-1H-1,2,3-triazol-1-yl)-3,3-dimethylbutanoyl)-4-hydroxypyrrolidine-2-carboxamide] | < 10 nM | > 90% | < 10 nM | > 90%
Cc1ncsc1-c1ccc([C@@H](NC(=O)[C@@H]2C[C@@H](O)CN2C(=O)[C@@H](n2cc(C3CC3)nn2)C(C)(C)C)C(=O)N2CCC(CN3CCC(c4ccc5c(c4)-n4c(nc(=O)c6c(Br)cccc64)C54CCCCC4)CC3)CC2)cc1 [Compound A136, (2S,4R)—N—((R)-2-(4-((4-(4′-bromo-5′-oxo-5′H-spiro[cyclohexane-1,7′-indolo[1,2-a]quinazolin]-10′-yl)piperidin-1-yl)methyl)piperidin-1-yl)-1-(4-(4-methylthiazol-5-yl)phenyl)-2-oxoethyl)-1-((S)-2-(4-cyclopropyl-1H-1,2,3-triazol-1-yl)-3,3-dimethylbutanoyl)-4-hydroxypyrrolidine-2-carboxamide] | < 10 nM | > 90% | < 10 nM | > 90%
Cc1ncsc1-c1ccc([C@@H](NC(=O)[C@@H]2C[C@@H](O)CN2C(=O)[C@@H](n2cc(C3CC3)nn2)C(C)(C)C)C(=O)N2CCC3(CCC(CN4CCC(c5ccc6c(c5)-n5c(nc(=O)c7c(Br)cccc75)C65CCCCC5)CC4)CC3)CC2)cc1 [Compound A137, (2S,4R)—N—((R)-2-(9-((4-(4′-bromo-5′-oxo-5′H-spiro[cyclohexane-1,7′-indolo[1,2-a]quinazolin]-10′-yl)piperidin-1-yl)methyl)-3-azaspiro[5.5]undecan-3-yl)-1-(4-(4-methylthiazol-5-yl)phenyl)-2-oxoethyl)-1-((S)-2-(4-cyclopropyl-1H-1,2,3-triazol-1-yl)-3,3-dimethylbutanoyl)-4-hydroxypyrrolidine-2-carboxamide] | < 10 nM | 70 to 90% | < 10 nM | > 90%
